Data on 23 compounds can be found in US11111251B2, “Positive allosteric modulators of the muscarinic acetylcholine receptor M1” (Vanderbilt University, priority 2016, dated 2021).

In general, EC50 refers to the concentration that produces a half-maximal response. By Emax is commonly meant the maximal effect, on the per cent scale that the assay sets.

The target in this assay is T1, human mAChR M1 (Homo sapiens, UniProt P11229).
T1 sequence (P11229 1-460): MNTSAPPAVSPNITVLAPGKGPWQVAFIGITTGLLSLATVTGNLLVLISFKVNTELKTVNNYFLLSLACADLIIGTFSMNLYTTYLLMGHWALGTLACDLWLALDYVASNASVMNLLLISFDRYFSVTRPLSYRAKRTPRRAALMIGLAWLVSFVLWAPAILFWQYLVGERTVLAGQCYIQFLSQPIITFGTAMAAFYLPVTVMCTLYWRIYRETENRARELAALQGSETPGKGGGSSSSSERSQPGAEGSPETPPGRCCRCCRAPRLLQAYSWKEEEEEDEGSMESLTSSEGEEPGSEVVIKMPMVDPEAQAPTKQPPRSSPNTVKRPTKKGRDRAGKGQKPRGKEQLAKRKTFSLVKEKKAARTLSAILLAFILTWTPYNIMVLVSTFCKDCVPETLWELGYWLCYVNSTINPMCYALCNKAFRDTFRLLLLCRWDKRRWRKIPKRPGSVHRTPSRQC
Put plainly: mAChR M1 cell-based functional assay: calcium mobilization, positive allosteric modulator mode (increase in EC20 acetylcholine response). The following applies: Table 2, human M1; for EC50: read-out: Human M1 EC50; for Emax: read-out: Human M1 Emax (%). In short, it runs like this: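 Calcium-flux assay in CHO-K1 cells stably expressing human M1, loaded with Fluo-4 AM (50 min, 37 °C) and read at 1 Hz. Compound (11-point, 1:3 series) was added at 4 s, EC20 acetylcholine at 144 s and EC80 at 230 s. PAM activity is the concentration-dependent rise in the EC20 response, fitted with a four-parameter logistic.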

`Cn1cc(-c2ccc(Cc3cc(C(=O)N[C@H]4CC[C@@H]4O)nc4ccsc34)cc2)nn1` [Compound 148, N-[(1S,2S)-2-hydroxycyclobutyl]-7-[[4-(1-methyltriazol-4-yl)phenyl]methyl]thieno[3,2-b]pyridine-5-carboxamide]: the EC50 came out at 0.0331 µM and the Emax stood at 85.5%.
As to `Cc1nc(-c2ccc(Cc3cc(C(=O)NC4CN(C(C)(C)C)C4)nc4ccsc34)cc2)cs1` [Compound 179, N-(1-tert-butylazetidin-3-yl)-7-[[4-(2-methylthiazol-4-yl)phenyl]methyl]thieno[3,2-b]pyridine-5-carboxamide], the EC50 amounted to 3.8 µM and the Emax is 65.2%.
The corresponding values for `Cn1ccc2nc(C(=O)N[C@H]3CCCC[C@@H]3O)cc(Cc3ccc(-c4nccs4)cc3)c21` [Compound 479, N-[(1S,2S)-2-hydroxycyclohexyl]-1-methyl-7-[(4-thiazol-2-ylphenyl)methyl]pyrrolo[3,2-b]pyridine-5-carboxamide] are 0.041 µM and 52.5%.
Taken in the same sequence, the figures for `O=C(c1cc(Cc2ccc(-n3cccn3)cc2)c2sccc2n1)N1CC2CC1CO2` (stereo not drawn) [Compound 445, 2-oxa-5-azabicyclo[2.2.1]heptan-5-yl-[7-[(4-pyrazol-1-ylphenyl)methyl]thieno[3,2-b]pyridin-5-yl]methanone] were > 10 µM and 50.7%.
Regarding `Cn1ccc(-c2ccc(Cc3cc(C(=O)N[C@H]4CCOC[C@@H]4O)nc4ccsc34)cc2)n1` [Compound 255, N-[(3R,4S)-3-hydroxytetrahydropyran-4-yl]-7-[[4-(1-methylpyrazol-3-yl)phenyl]methyl]thieno[3,2-b]pyridine-5-carboxamide], the EC50 was determined as 0.00576 µM and the Emax stood at 47%.
The corresponding values for `O=C(N[C@H]1COCC[C@@H]1O)c1cc(Cc2ccc(-c3cscn3)cc2)c2sccc2n1` [Compound 216] are 0.022 µM and 81.2%.
The corresponding values for `O=C(N[C@@H]1CCOC1)c1cc(Cc2ccc(-c3cncs3)cc2)c2sccc2n1` [Compound 400] are 4.21 µM and 51.4%.
Taken in the same sequence, the figures for `Cn1ccc2nc(C(=O)N[C@H]3CC[C@@H]3O)cc(Cc3ccc(-c4cscn4)cc3)c21` [Compound 459, N-[(1S,2S)-2-hydroxycyclobutyl]-1-methyl-7-[(4-thiazol-4-ylphenyl)methyl]pyrrolo[3,2-b]pyridine-5-carboxamide] were 0.108 µM and 73.5%.
As for “N-[(1S,2S)-2-hydroxycyclohexyl]-7-(4-[(4-2-ylphenyl)methyl]thieno[3,2-b]pyridine-5-carboxamide [Compound 295]”, the “Human M1 Emax (%)” value came out at 72.42%.
In the case of `Cc1ccc([C@H](F)c2cc(C(=O)N[C@H]3CCCC[C@@H]3O)nc3ccsc23)cn1` [Compound 233], the EC50 is 0.161 µM and the Emax was 67.8%.
The corresponding values for `CC(C)(C)N1CC(NC(=O)c2cc(Cc3ccc(-n4cccn4)cc3)c3sccc3n2)C1` [Compound 434, N-(1-tert-butylazetidin-3-yl)-7-[(4-pyrazol-1-ylphenyl)methyl]thieno[3,2-b]pyridine-5-carboxamide] are 1.46 µM and 66.2%.
Taken in the same sequence, the figures for `Cn1ncc2nc(C(=O)NC[C@H]3CCCO3)cc(Cc3ccc(-n4cccn4)cc3)c21` [Compound 502, 1-methyl-7-[(4-pyrazol-1-ylphenyl)methyl]-N-[[(2R)-tetrahydrofuran-2-yl]methyl]-pyrazolo[4,3-b]pyridine-5-carboxamide] were 4.14 µM and 67.2%.
Taken in the same sequence, the figures for `O=C(NCC1CCOC1)c1cc(Cc2ccc(-n3cccn3)cc2)c2sccc2n1` (stereo not drawn) [Compound 285, 7-[(4-pyrazol-1-ylphenyl)methyl]-N-(tetrahydrofuran-3-ylmethyl)thieno[3,2-b]pyridine-5-carboxamide] were 0.0953 µM and 64.3%.
Turning to `COCC(C)NC(=O)c1cc(Cc2ccc(-c3cnn(C)c3)nc2)c2sccc2n1` (stereo not drawn) [Compound 363, N-(2-methoxy-1-methyl-ethyl)-7-[[6-(1-methylpyrazol-4-yl)-3-pyridyl]methyl]thieno[3,2-b]pyridine-5-carboxamide], the EC50 turned out to be 0.321 µM and the Emax was 85.2%.
Regarding `Cn1ncc2nc(C(=O)NCC3CCO3)cc(Cc3ccc(-n4cccn4)cc3)c21` (stereo not drawn) [Compound 501, 1-methyl-N-(oxetan-2-ylmethyl)-7-[(4-pyrazol-1-ylphenyl)methyl]pyrazolo[4,3-b]-pyridine-5-carboxamide], the EC50 was > 10 µM and the maximum response (Emax) was 57.4%.
The corresponding values for `Cc1nc(-c2ccc(Cc3cc(C(=O)N[C@H]4CCOC[C@@H]4O)nc4ccsc34)cc2)cs1` [Compound 192, N-[(3R,4S)-3-hydroxytetrahydropyran-4-yl]-7-[[4-(2-methylthiazol-4-yl)phenyl]methyl]thieno[3,2-b]pyridine-5-carboxamide] are 0.0153 µM and 78.7%.
Taken in the same sequence, the figures for `Cn1ccc(-c2ccc(Cc3cc(C(=O)NC4CCOCC4)nc4ccn(C)c34)cc2)n1` [Compound 473, 1-methyl-7-[[4-(1-methylpyrazol-3-yl)phenyl]methyl]-N-tetrahydropyran-4-yl-pyrrolo[3,2-b]pyridine-5-carboxamide] were 0.106 µM and 85.8%.
For `Cn1cc(-c2ccc(Cc3cc(C(=O)NCC4CCN4)nc4ccsc34)cn2)cn1` (stereo not drawn) [Compound 360, N-(azetidin-2-ylmethyl)-7-[[6-(1-methylpyrazol-4-yl)-3-pyridyl]methyl]thieno[3,2-b]pyridine-5-carboxamide], the EC50 was found to be 0.0385 µM and the Emax came out at 88.1%.
The corresponding values for `Cn1ccc(-c2ccc(Cc3cc(C(=O)N[C@H]4CCCC[C@@H]4O)nc4ccsc34)cn2)n1` [Compound 354, N-[(1S,2S)-2-hydroxycyclohexyl]-7-[[6-(1-methylpyrazol-3-yl)-3-pyridyl]methyl]thieno[3,2-b]pyridine-5-carboxamide] are 0.0148 µM and 64.2%.
Taken in the same sequence, the figures for `Cc1ncc(Cc2cc(C(=O)NC3CCCNC3=O)nc3ccsc23)s1` (stereo not drawn) [Compound 143, 7-[(2-methylthiazol-5-yl)methyl]-N-(2-oxo-3-piperidyl)thieno[3,2-b]pyridine-5-carboxamide] were > 10 µM and 50.5%.
The corresponding values for `Cc1nn(C)c(C)c1-c1ccc(Cc2cc(C(=O)NC3CCOCC3)nc3ccsc23)cc1` [Compound 243, N-tetrahydropyran-4-yl-7-[[4-(1,3,5-trimethylpyrazol-4-yl)phenyl]methyl]thieno[3,2-b]pyridine-5-carboxamide] are > 10 µM and 17.9%.
Regarding `Cn1ccc2nc(C(=O)N[C@H]3CC[C@@H]3O)cc(Cc3ccc(-c4nccs4)cc3)c21` [Compound 482, N-[(1S,2S)-2-hydroxycyclobutyl]-1-methyl-7-[(4-thiazol-2-ylphenyl)methyl]pyrrolo[3,2-b]pyridine-5-carboxamide], the EC50 came to 0.171 µM and the Emax came to 61.2%.
Taken in the same sequence, the figures for `Cc1nc(-c2ccc(Cc3cc(C(=O)N[C@H]4CCCC[C@@H]4O)nc4ccsc34)cc2)cs1` [Compound 194, N-[(1S,2S)-2-hydroxycyclohexyl]-7-[[4-(2-methylthiazol-4-yl)phenyl]methyl]thieno[3,2-b]pyridine-5-carboxamide] were 0.0596 µM and 80.7%.
